Patent publication US20150105252A1, “SUBSTITUTED PYRAZOLES AS HERBICIDES” (E I DU PONT DE NEMOURS AND COMPANY, priority 2013, published 2015)

What was measured:
[1] = test system: velvetleaf; assay: Test C preemergence; format: in vivo, Abutilon theophrasti; conditions: for Velvetleaf plant response rating: scale 0 to 100 (0 no effect, 100 complete control)
Method in brief: (§1)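 Scores of 0 (no effect) to 100 (complete control) were assigned by eye after 13–15 days, comparing treated pots with controls. Soil-applied (preemergence) treatments went onto seeds in loam and sand; foliar (postemergence) treatments onto 1- to 4-leaf plants in peat medium.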

[2] = test system: foxtail, giant; assay: Test C postemergence; format: in vivo, Setaria faberii
Method in brief: as §1

[3] = test system: oilseed rape; assay: Test C postemergence; format: in vivo, Brassica napus
Method in brief: as §1

[4] = test system: barnyardgrass; assay: Test C preemergence; format: in vivo, Echinochloa crus-galli; conditions: for Barnyardgrass plant response rating: scale 0 to 100 (0 no effect, 100 complete control)
Method in brief: as §1

[5] = test system: crabgrass, large; assay: Test A preemergence; format: in vivo, Digitaria sanguinalis; conditions: preemergence
Method in brief: (§2)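 Scoring was visual, on a scale where 100 means complete control and 0 means no effect, comparing treated with untreated plants around 10 days post-application. Compounds in surfactant-containing non-phytotoxic solvent were sprayed onto soil preemergence or onto one- to two-leaf seedlings (2–10 cm) postemergence.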

[6] = test system: corn; assay: Test C postemergence; format: in vivo, Zea mays
Method in brief: as §1

[7] = test system: nutsedge, yellow; assay: Test C postemergence; format: in vivo, Cyperus esculentus
Method in brief: as §1

[8] = test system: ragweed; assay: Test C preemergence; format: in vivo, Ambrosia elation; conditions: for Ragweed plant response rating: scale 0 to 100 (0 no effect, 100 complete control)
Method in brief: as §1

[9] = test system: ragweed; assay: Test C postemergence; format: in vivo, Ambrosia elation
Method in brief: as §1

[10] = test system: johnsongrass; assay: Test C postemergence; format: in vivo, Sorghum halepense
Method in brief: as §1

[11] = test system: soybean; assay: Test C preemergence; format: in vivo, Glycine max; conditions: for Soybean plant response rating: scale 0 to 100 (0 no effect, 100 complete control)
Method in brief: as §1

[12] = test system: waterhemp; assay: Test C preemergence; format: in vivo, Amaranthus rudis; conditions: for Waterhemp plant response rating: scale 0 to 100 (0 no effect, 100 complete control)
Method in brief: as §1

[13] = test system: soybean; assay: Test C postemergence; format: in vivo, Glycine max
Method in brief: as §1

[14] = test system: morningglory; assay: Test A postemergence; format: in vivo, Ipomoea spp.
Method in brief: as §2

[15] = test system: ryegrass, Italian; assay: Test C postemergence; format: in vivo, Lolium multiflorum
Method in brief: as §1

[16] = test system: wheat; assay: Test A preemergence; format: in vivo, Triticum aestivum; conditions: preemergence
Method in brief: as §2

[17] = preemergence, 31 g ai/ha, visual rating, 13 to 15 days
[18] = preemergence, 62 g ai/ha, 13 to 15 days
[19] = preemergence, 125 g ai/ha, 13 to 15 days, scale 0 to 100, 0 = no effect, 100 = complete control
[20] = Postemergence, 31 g ai/ha, visually evaluated after 13 to 15 days
[21] = postemergence, 62 g ai/ha, scale 0 to 100
[22] = postemergence, 250 g ai/ha, scale 0 to 100 (0 no effect, 100 complete control)
[23] = postemergence, 125 g ai/ha, scale 0 to 100, 0 no effect, 100 complete control
[24] = 125 g ai/ha, visual injury, 0 to 100 scale, approx. 10 days
[25] = 500 g ai/ha, visual injury after approx. 10 days, 0 to 100 scale (0 no effect, 100 complete control)

CCCNC(=O)c1cc(CC)n(Cc2ccnc(OC(F)F)c2)n1 [Compound 132]
Plant response rating (scale of 0 to 100), Velvetleaf ([1]; Preemergence, 250 g ai/ha): 100
Velvetleaf plant response rating [1, 17]: 55
Velvetleaf plant response rating [1, 18]: 100
Plant response rating, Velvetleaf [1, 19]: 100
Plant response rating (scale of 0 to 100 where 0 is no effect and 100 is complete control), Foxtail, Giant [2, 20]: 5
Foxtail, Giant plant response rating [2, 21]: 10
Plant response rating, Foxtail, Giant [2, 22]: 55
Plant response rating, Foxtail, Giant [2, 23]: 35
Plant response rating (scale of 0 to 100 where 0 is no effect and 100 is complete control), Oilseed Rape [3, 20]: 25
Oilseed Rape plant response rating [3, 21]: 55
Plant response rating, Oilseed Rape [3, 22]: 65
Plant response rating, Oilseed Rape [3, 23]: 65
Plant response rating (scale of 0 to 100), Barnyardgrass ([4]; Preemergence, 250 g ai/ha): 100
Barnyardgrass plant response rating ([4]; preemergence, 31 g ai/ha, 13 to 15 days): 95
Barnyardgrass plant response rating [4, 18]: 100
Plant response rating, Barnyardgrass [4, 19]: 100
Crabgrass, Large plant response rating [5, 24]: 100
Crabgrass, Large plant response rating [5, 25]: 100
Plant response rating (scale of 0 to 100 where 0 is no effect and 100 is complete control), Corn [6, 20]: 5
Corn plant response rating [6, 21]: 5
Plant response rating, Corn [6, 22]: 20
Plant response rating, Corn [6, 23]: 75
Plant response rating (scale of 0 to 100 where 0 is no effect and 100 is complete control), Nutsedge, Yellow [7, 20]: 5
Nutsedge, Yellow plant response rating [7, 21]: 10
Plant response rating, Nutsedge, Yellow [7, 22]: 10
Plant response rating, Nutsedge, Yellow [7, 23]: 20
Plant response rating (scale of 0 to 100), Ragweed ([8]; Preemergence, 250 g ai/ha): 100
Ragweed plant response rating [8, 17]: 70
Ragweed plant response rating [8, 18]: 90
Plant response rating, Ragweed [8, 19]: 100
Plant response rating (scale of 0 to 100 where 0 is no effect and 100 is complete control), Ragweed [9, 20]: 10
Ragweed plant response rating [9, 21]: 10
Plant response rating, Ragweed [9, 22]: 90
Plant response rating, Ragweed [9, 23]: 55
Plant response rating (scale of 0 to 100 where 0 is no effect and 100 is complete control), Johnsongrass [10, 20]: 5
Johnsongrass plant response rating [10, 21]: 5
Plant response rating, Johnsongrass [10, 22]: 75
Plant response rating, Johnsongrass [10, 23]: 25
Plant response rating (scale of 0 to 100), Soybean ([11]; Preemergence, 250 g ai/ha): 95
Soybean plant response rating [11, 17]: 35
Soybean plant response rating [11, 18]: 75
Plant response rating, Soybean [11, 19]: 90
Plant response rating (scale of 0 to 100), Waterhemp ([12]; Preemergence, 250 g ai/ha): 100
Waterhemp plant response rating [12, 17]: 100
Waterhemp plant response rating [12, 18]: 100
Plant response rating, Waterhemp [12, 19]: 100
Plant response rating (scale of 0 to 100 where 0 is no effect and 100 is complete control), Soybean [13, 20]: 65
Soybean plant response rating [13, 21]: 45
Plant response rating, Soybean [13, 22]: 98
Plant response rating, Soybean [13, 23]: 95
Morningglory plant response rating ([14]; Postemergence, 500 g ai/ha, 0 to 100 scale (0 no effect, 100 complete control)): 100
Morningglory plant response rating ([14]; postemergence, 125 g ai/ha, about 10 days, visual rating on 0 to 100 scale (0 no effect, 100 complete control)): 90
Plant response rating (scale of 0 to 100 where 0 is no effect and 100 is complete control), Ryegrass, Italian [15, 20]: 10
Ryegrass, Italian plant response rating [15, 21]: 10
Plant response rating, Ryegrass, Italian [15, 22]: 10
Plant response rating, Ryegrass, Italian [15, 23]: 10
Wheat plant response rating [16, 24]: 80
Wheat plant response rating [16, 25]: 100
